Five molecules from patent US8629154B2, “Substituted cycloalcano[e and d] pyrazolo [1,5-a]pyrimidines/antagonists of serotonin 5-HT6 receptors and methods for production and the use thereof” (priority 2008, dated 2014) can be followed below.

Assay [1] addresses T1, 5-HT6 receptor (Homo sapiens (Human), UniProt P50406). In words: Functional assay: inhibition of serotonin-induced intracellular cAMP (LANCE cAMP) in HEK 293 cells expressing 5-HT6 receptor. In kind it is cell-based. Conditions: read-out: IC50 of serotonin 5-HT6 receptor inhibition in the setting of functional assay. The protocol: Determination of antagonistic activity of compounds of general formulas 1 and 2 towards 5-HT6 receptors. Compounds of general formulas 1 and 2 were tested for their ability to prevent 5-HT6 receptors activation by serotonin. HEK 293 cells (cells of human embryo's kidney) with artificially expressed 5-HT6 receptor, activation of which by serotonin leads to increasing the concentration of intracellular cAMP were used. The content of intracellular cAMP was determined using reagent kit LANCE cAMP (PerkinElmer) according to the method described by the manufacturer of the kit [http://las.perkinelmer.com/content/Manuals/MAN_LANCEcAMP384KitUser.pdf].
Effectiveness of compounds was estimated by their ability to reduce the content of intracellular cAMP induced by serotonin.

The target in assay [2] is T1, 5-HT6 receptor. In words: Competitive radioligand binding ([3H] Lysergic acid diethylamide) to membranes of HeLa cells expressing 5-HT6 receptor. The note with it: 1.5 nM [3H] Lysergic acid diethylamide, HeLa cell membranes; for IC50: read-out: IC50 of serotonin 5-HT6 receptor inhibition in the setting of competitive binding; for Ki: read-out: Ki of serotonin 5-HT6 receptor inhibition in the setting of competitive binding. How it is done:
Activity determination of serotonin 5-HT6 receptor antagonists of the general formula 1 in the setting of competitive binding to serotonin 5-HT6 receptors.
Screening of disclosed compounds for their potential ability to interact with serotonin 5-HT6 receptors was carried out by method of radioligand binding. For this purpose membrane species were prepared from HeLa cells expressing recombinant human 5-HT6 receptor by means of their homogenization in glass homogenizer with subsequent separation of plasmatic membranes from cell nucli, mitochondria's and cell wreckages by differential centrifugation. Determination of tested compounds binding with 5-HT6 receptors was carried out according to the method described in [Monsma F J Jr, Shen Y, Ward R P, Hamblin M W and Sibley D R, Cloning and expression of a novel serotonin receptor with high affinity for tricyclic psychotropic drugs. Mol. Pharmacol. 43:320-327, 1993]. In the preferred embodiment membrane preparations were incubated with radioligand (1.5 nM [^3H] Lysergic acid diethylamide) without and in the presence of investigated compounds for […] at 37° C. in medium consisting of […], pH 7.4, 150 mM NaCl, 2 mM Ascorbic Acid, 0.001% BSA. After incubation the samples were filtered in vacuo on glass-microfiber filters G/F (Millipor, USA), filters were washed three times with cold solution of medium and radioactivity was measured by scintillation counter MicroBeta 340 (PerkinElmer, USA). Nonspecific binding which made up 30% of overall binding was determined by incubation of membrane preparations with radioligand in the presence of 5 μM Serotonin (5-HT). Methiothepin was used as positive control. Binding of tested compounds with the receptor was determined by their ability to displace the radioligand and expressed in percent of displacement. The percent of displacement was calculated according to the following equation:
[formula] wherein: TA—was overall radioactivity in presence of radioligand only, CA—was radioactivity in presence of radioligand and tested compound and NA—was radioactivity in presence of radioligand and Serotonin (5 μM).

The subject of assay [3] is aged male mice of BALB/c line. The assay can be described thus: Passive Avoidance of mice in the Shuttle Chamber, memory disturbed by Scopolamine. In kind it is in vivo. Conditions: Scopolamine 0.3 mg/kg, 30 minutes before training. How it is done: A shuttle chamber (Ugo Basile, Italy) consisted of two sections was used. The walls of one section were opaque while the second section had transparent cover. The sections were connected through a hole which could be overlapped by vertical door. The floor was made of transverse metal bars on which DC current impulses could be fed. Experiments were carried out in aged male mice of BALB/c line weighing 20-24 grams. On the first day of experiment 30 minutes before training mice were injected […] with physiological solutions of Scopolamine (0.3 mg/kg) or Scopolamine in combination with active ingredient 1.2(3). Each group consisted of at least 8 animals. Animals were placed in light section, and latent period of the first entry into dark chamber was registered. Then vertical door was closed and the animal was punished by 0.6 mA DC current for 3 seconds. After that the animal was returned to its living cage. In 22-24 hours the same animal was placed again in light section of the shuttle chamber and the latent period of its first entry into the dark section, the total time of its stay in the light section and the number of entries into the dark section was registered. Each monitoring lasted for 5 minutes. The experiment was carried out during the day time in isolated laboratory using white noise at level of about 70 decibel above human hearing threshold. […]

Assay [4] relates to mice. The assay can be described thus: Passive Avoidance of mice in the Shuttle Chamber, memory disturbed by MK-801. In kind it is in vivo. The note with it: MK-801 0.1 mg/kg, 30 minutes before training. The protocol: A shuttle chamber (Ugo Basile, Italy) consisted of two sections was used. The walls of one section were opaque while the second section had transparent cover. The sections were connected through a hole which could be overlapped by vertical door. The floor was made of transverse metal bars on which DC current impulses could be fed. Experiments were carried out in aged male mice of BALB/c line weighing 20-24 grams.
On the first day of experiment 30 minutes before training mice were injected […] with physiological solutions of Scopolamine (0.3 mg/kg) or Scopolamine in combination with active ingredient 1.2(3). Each group consisted of at least 8 animals. Animals were placed in light section, and latent period of the first entry into dark chamber was registered. Then vertical door was closed and the animal was punished by 0.6 mA DC current for 3 seconds. After that the animal was returned to its living cage. In 22-24 hours the same animal was placed again in light section of the shuttle chamber and the latent period of its first entry into the dark section, the total time of its stay in the light section and the number of entries into the dark section was registered. Each monitoring lasted for 5 minutes.
The experiment was carried out as in example 7. […]

For assay [5], the system named is mice. In words: Mice Behavior in the Elevated Plus Maze. In kind it is in vivo. From the text:
Anxiolytic (tranquilizing) action of compounds of general formulas 1 and 2 in the test “Mice Behavior in the Elevated Plus Maze”. The length of each arm in the labyrinth is 30 cm, the width is 5 cm, and the height of walls is 15 cm. Two opposite arms are closed from sides and end faces by transparent walls, the other two arms are lit and opened. A mouse was placed in the center of maze and for the next five minutes the number of entries the opened and closed arms and the time spent in each type of arms was registered. […] The animals usually avoid the open arms (the preference index is between 0.2 and 0.3). Compounds with tranquilizing action increase this index up to 0.5-0.6 or even more and reduce the number of defecations without changing the overall motion activity of the mice (the total number of their entries to the arms).

T1 sequence (P50406 whole entry): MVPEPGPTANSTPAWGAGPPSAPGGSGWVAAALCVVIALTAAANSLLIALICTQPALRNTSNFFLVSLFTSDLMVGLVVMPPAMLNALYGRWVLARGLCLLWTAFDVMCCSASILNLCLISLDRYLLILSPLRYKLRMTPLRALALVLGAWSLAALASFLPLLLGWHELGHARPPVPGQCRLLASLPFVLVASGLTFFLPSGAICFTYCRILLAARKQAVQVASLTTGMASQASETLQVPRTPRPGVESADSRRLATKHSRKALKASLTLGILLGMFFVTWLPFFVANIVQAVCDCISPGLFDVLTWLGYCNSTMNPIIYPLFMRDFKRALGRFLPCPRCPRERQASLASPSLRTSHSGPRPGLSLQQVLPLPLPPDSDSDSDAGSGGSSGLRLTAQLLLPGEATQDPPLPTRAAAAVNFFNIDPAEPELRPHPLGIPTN

With `CSc1nn2c(C)c3c(nc2c1S(=O)(=O)c1ccccc1)CCCC3` [2(2)], the IC50 (commonly the concentration at which inhibition is half-maximal) in assay [1] worked out at 7.8 nM; in assay [2], 1.46 nM. In addition, the Ki (commonly a dissociation constant, usually derived from enzyme kinetics or from competition with a known ligand) in assay [2] turned out to be 0.68 nM.

As for `CSc1nn2cc3c(nc2c1S(=O)(=O)c1ccccc1)CCCC3` [2(1)], the IC50 in assay [1] amounted to 479 nM. Besides, in assay [2], the half-maximal inhibitory concentration (IC50) stood at 17.2 nM and the Ki was 7.97 nM.

Consider `CSc1nn2c3c(cnc2c1S(=O)(=O)c1ccccc1)CCC3` [1.1(1), 2-methylsulfanyl-3-(phenylsulfonyl)-7,8-dihydro-6H-cyclopenta[e]pyrazolo[1,5-a]pyrimidine], for which the figures for the half-maximal inhibitory concentration (IC50) in assay [1] and in assay [2] were 27 nM and 0.986 nM, respectively. Further, the Ki in assay [2] was found to be 0.458 nM.

Turning to `CSc1nn2c3c(c(C)nc2c1S(=O)(=O)c1ccccc1)CCCC3` [1.2(3), 5-methyl-2-methylsulfanyl-3-(phenylsulfonyl)-6,7,8,9-tetrahydrocyclohexa[e]pyrazolo[1,5-a]pyrimidine], the values for the IC50 in assay [1] and in assay [2] were 32 nM and 0.948 nM, respectively. The “Nootropic action (enhancement of memory disturbed by Scopolamine)” value in assay [3] is recorded as “confirm nootropic action”. The Ki in assay [2] worked out at 0.44 nM. The “Nootropic action (enhancement of memory disturbed by MK-801)” value in assay [4] was “produce nootropic effect”. Further, the “Anxiolytic (tranquilizing) action” value in assay [5] was “exhibits an anxiolytic (tranquilizing) action which is comparable with the activity of Buspirone and Lorasepam”.

`CSc1nn2c3c(cnc2c1S(=O)(=O)c1ccccc1)CCCC3` [1.2(1), 2-methylsulfanyl-3-(phenylsulfonyl)-6,7,8,9-tetrahydrocyclohexa[e]pyrazolo[1,5-a]pyrimidine]: in assay [1], the IC50 turned out to be 35 nM. In assay [2], the IC50 worked out at 1.18 nM and the Ki amounted to 0.549 nM.
